# Literature values as cited in patent US20240035023A1, “COMPUTER IMPLEMENTED METHOD FOR E[…] FOR SYNTHESIS OF FL[…]” (Kcat Enzymatic Private Limited, priority 2022, published 2024).
# Biological target: fluorinase (Streptantibioticus cattleyicolor, UniProt Q70GK9)
structure (smiles),measurement,value
Nc1ncnc2c1ncn2[C@@H]1O[C@H](CSCC[C@H](N)C(=O)O)[C@@H](O)[C@H]1O [S-adenosyl-homocysteine],enzyme activity against the substrate,no activity
